Results on 10 compounds are retold here after PubChem BioAssay (NCI).

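Test compounds were applied to cells in 96-well plates for 48 hours at 5 doses. The concentration for full growth arrest is given as TGI.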 A value given as a limit tells only on which side of the number the result lay.

Test systems include COLO 205 colon; DU-145 prostate; EKVX NSCLC; HS 578T breast; LOX IMVI melanoma; MDA-MB-435; MOLT-4 leukemia; NCI-H522 lung; OVCAR-3 ovarian; RXF 393 renal; SF-295 CNS; SN12C renal; SNB-19 CNS; U251 CNS; UO-31 renal; SK-OV-3 ovarian.
Common to all, as to assay: growth of human tumour cells (NCI), 48 h

For `CO[C@@H]1C[C@H]2[C@@H]3CC[C@H]([C@@H](C)COC(C)=O)[C@@]3(C)CC[C@@H]2[C@@]2(C)CC[C@H]3C[C@]312`, the TGI in the test with COLO 205 colon amounted to 20.2 µM; in the test on DU-145 prostate, 27.8 µM; with EKVX NSCLC it was 28 µM; with HS 578T breast, 39.5 µM; in the test with LOX IMVI melanoma, 23.6 µM; in the test with MDA-MB-435 it was 29.2 µM. The TGI was determined as 32.3 µM in the test with MOLT-4 leukemia; 33.2 µM in the test with NCI-H522 lung; 27.7 µM in the test on OVCAR-3 ovarian; 35.7 µM in the test on RXF 393 renal; 28.3 µM in the test on SF-295 CNS; 32.1 µM in the test on SN12C renal. Also, the TGI with SNB-19 CNS worked out at 31.7 µM; with U251 CNS, 25.8 µM; in the test on UO-31 renal it was 32.4 µM.

Turning to `CN1CCC2(CC1)C(=O)N(NC(N)=O)C(=O)C2c1ccccc1` (stereo not given), the TGI in the test on COLO 205 colon, in the test on DU-145 prostate, in the test on EKVX NSCLC, in the test with HS 578T breast, with LOX IMVI melanoma and in the test on MDA-MB-435 was > 100 µM each time. For the same compound, the TGI in the test with MOLT-4 leukemia, in the test on OVCAR-3 ovarian, in the test on RXF 393 renal, in the test with SF-295 CNS, in the test with SK-OV-3 ovarian and in the test on SN12C renal was > 100 µM each time. The TGI in the test with SNB-19 CNS, in the test with U251 CNS and in the test on UO-31 renal was > 100 µM in each case.

As to `CCOC(=O)c1ccc(N(C)Cc2cnc3nc(N)nc(N)c3n2)cc1`, the TGI is > 100 µM in the test with COLO 205 colon; > 100 µM with DU-145 prostate; > 100 µM in the test on EKVX NSCLC; 73.1 µM in the test with HS 578T breast; > 100 µM in the test on LOX IMVI melanoma; > 100 µM with MDA-MB-435. Besides, the TGI with MOLT-4 leukemia was > 100 µM; in the test with OVCAR-3 ovarian it was 34.9 µM; with RXF 393 renal it was 33 µM; in the test with SF-295 CNS, > 100 µM; in the test with SK-OV-3 ovarian, 51.4 µM; in the test with SN12C renal, > 100 µM. In addition, the TGI with SNB-19 CNS was > 100 µM; with U251 CNS, > 100 µM; with UO-31 renal, 72.1 µM.

`O=C(OC1C#CCSCC#C/C=C\1)c1cnc2ccccc2n1` (stereo not given): the TGI is 30.8 µM with COLO 205 colon; > 100 µM with DU-145 prostate; > 100 µM with EKVX NSCLC; > 100 µM with HS 578T breast; > 100 µM in the test with LOX IMVI melanoma; > 100 µM in the test with MDA-MB-435. Besides, the TGI in the test on NCI-H522 lung, in the test with OVCAR-3 ovarian, in the test with RXF 393 renal, in the test on SF-295 CNS, in the test with SK-OV-3 ovarian and in the test on SN12C renal was > 100 µM each time. Moreover, the TGI in the test on SNB-19 CNS, in the test on U251 CNS and with UO-31 renal was > 100 µM in each case.

Take `CC(C)C1=CC23CCC4C(C)(C(=O)O)CCCC4(C)C2CC1C1C(=O)N(c2ccc(N4C(=O)C5C6CC7C8(C)CCCC(C)(C(=O)O)C8CCC7(C=C6C(C)C)C5C4=O)cc2)C(=O)C13` (stereo not given): the TGI in the test with COLO 205 colon is 10.8 µM; in the test with DU-145 prostate, 16.6 µM; in the test with EKVX NSCLC, 18.7 µM; with HS 578T breast it was 30.2 µM; in the test with MDA-MB-435, 13 µM; with MOLT-4 leukemia, 22 µM. The TGI in the test on NCI-H522 lung came out at 17 µM; in the test on OVCAR-3 ovarian, 18.6 µM; in the test with RXF 393 renal, 24.7 µM; in the test with SN12C renal, 17.5 µM; with SNB-19 CNS it was 18.8 µM; in the test on U251 CNS, 14.4 µM. In the test with UO-31 renal, this compound had a TGI of 34 µM.

`O=c1cc(CN2CCCCC2)[nH]c2c1ccc1nc(CN3CCCCC3)cc(=O)n12`: the TGI with COLO 205 colon, in the test with DU-145 prostate, in the test on EKVX NSCLC, in the test on HS 578T breast, in the test on LOX IMVI melanoma and in the test with MDA-MB-435 was > 100 µM each time. The TGI in the test on MOLT-4 leukemia, in the test on OVCAR-3 ovarian, in the test with RXF 393 renal, in the test with SF-295 CNS, in the test on SK-OV-3 ovarian and with SN12C renal was > 100 µM each time. Besides, the TGI in the test with SNB-19 CNS, in the test with U251 CNS and in the test with UO-31 renal was > 100 µM throughout.

With `COc1ccccc1NC(=S)NNC(=O)c1cc(-c2ccccc2)nc2ccccc12`, the TGI in the test with COLO 205 colon is 45.8 µM; with DU-145 prostate it was 32 µM; in the test with HS 578T breast it was 50.2 µM; with MDA-MB-435, 18.5 µM; in the test on MOLT-4 leukemia, 26.5 µM; with NCI-H522 lung it was 50 µM. The TGI in the test on OVCAR-3 ovarian was 18.2 µM; with RXF 393 renal it was 28.8 µM; in the test with SF-295 CNS it was 18 µM; in the test with SK-OV-3 ovarian it was 42.1 µM; in the test on SN12C renal, 41.5 µM; with SNB-19 CNS, > 100 µM. The TGI in the test with U251 CNS was found to be 43.7 µM; in the test on UO-31 renal, 24.6 µM.

On to `O=C1NC(=S)NC1C(Cc1ccccc1)c1ccco1` (stereo not given), for which the TGI in the test with COLO 205 colon, with DU-145 prostate, in the test on EKVX NSCLC, in the test with HS 578T breast, in the test on LOX IMVI melanoma and in the test with MDA-MB-435 was > 100 µM throughout. In addition, the TGI in the test on MOLT-4 leukemia, in the test on NCI-H522 lung, with RXF 393 renal, in the test with SF-295 CNS, with SK-OV-3 ovarian and in the test with SN12C renal was > 100 µM in each case. Further, the TGI with SNB-19 CNS, in the test on U251 CNS and in the test with UO-31 renal was > 100 µM in each case.

For `O=C(O)[C@@]1(Cc2ccc(O)cc2)C[C@@H]2Cc3ccccc3N2N1`, the TGI in the test on COLO 205 colon, with DU-145 prostate, with EKVX NSCLC, with HS 578T breast, with LOX IMVI melanoma and in the test with MDA-MB-435 was > 100 µM each time. The TGI in the test with MOLT-4 leukemia, with NCI-H522 lung, in the test with OVCAR-3 ovarian, in the test on SF-295 CNS, in the test with SK-OV-3 ovarian and in the test on SN12C renal was > 100 µM each time. In addition, the TGI in the test with SNB-19 CNS, with U251 CNS and in the test on UO-31 renal was > 100 µM each time.

For the compound `CN1CCN(Cn2nc(-c3ccccc3)n(/N=C/c3ccc(-c4ccc(Cl)cc4Cl)o3)c2=S)CC1`, the TGI in the test with DU-145 prostate was 21 µM; with EKVX NSCLC, > 100 µM; in the test on HS 578T breast it was > 100 µM; with LOX IMVI melanoma it was 46.7 µM; with MDA-MB-435, 46.1 µM; in the test on MOLT-4 leukemia, 5.15 µM. In addition, the TGI with NCI-H522 lung was > 100 µM; in the test with OVCAR-3 ovarian, 28.5 µM; with RXF 393 renal, 14 µM; in the test on SF-295 CNS, 29.9 µM; in the test on SK-OV-3 ovarian it was 27.3 µM; in the test on U251 CNS it was 17.5 µM. Besides, the TGI in the test on UO-31 renal was found to be 29 µM.
